pIC50: −log10 of the molar value.
Columns and labels:
Type in all cases: functional, cell-based
[1] = tested on: L1210; experiment: Cytotoxicity against mouse L1210 cells assessed as reduction in cell viability by MTT assay
[2] = tested on: HL-60; experiment: Cytotoxicity against human HL60 cells assessed as reduction in cell viability by MTT assay
[3] = tested on: SMMC-7721; experiment: Cytotoxicity against human SMMC7721 cells assessed as reduction in cell viability by MTT assay
[4] = tested on: CAPAN-1; experiment: Cytotoxicity against human Capan1 cells assessed as reduction in cell viability by MTT assay
[5] = tested on: Hep 3B2; experiment: Cytotoxicity against human Hep3B cells assessed as reduction in cell viability by MTT assay

Row | SMILES | pIC50 [1] | pIC50 [2] | pIC50 [3] | pIC50 [4] | pIC50 [5]
1 | CC1COc2c(N3CCN(C)CC3)c(F)cc3c(=O)c(-c4nnc(SCc5nnc(-c6ccc(Cl)cc6)o5)o4)cn1c23 (configuration not stated) | 4.61 to 5.24 | 4.61 to 5.24 | 4.61 to 5.24 | – | –
2 | CCn1cc(-c2nc3scc(-c4ccc(O)cc4)n3n2)c(=O)c2cc(F)c(N3CCN(C)CC3)cc21 | 4.25 to 5.44 | 4.25 to 5.44 | 4.25 to 5.44 | 4.25 to 5.44 | 4.25 to 5.44
3 | CCn1cc(-c2nc3scc(-c4ccc(OC)c(O)c4)n3n2)c(=O)c2cc(F)c(N3CCN(C)CC3)cc21 | 4.25 to 5.44 | 4.25 to 5.44 | 4.25 to 5.44 | 4.25 to 5.44 | 4.25 to 5.44
4 | CCn1cc(-c2nnc(SCc3nnc(-c4ccccc4OC)o3)[nH]2)c(=O)c2cc(F)c(N3CCN(C)CC3)cc21 | 4.45 to 5.42 | 4.45 to 5.42 | 4.45 to 5.42 | 4.45 to 5.42 | 4.45 to 5.42
5 | CC1COc2c(N3CCN(C)CC3)c(F)cc3c(=O)c(-c4nc5scc(-c6ccc(F)cc6)n5n4)cn1c23 (configuration not stated) | 4.25 to 5.44 | 4.25 to 5.44 | 4.25 to 5.44 | 4.25 to 5.44 | 4.25 to 5.44
6 | CN1CCN(c2cc3c(cc2F)c(=O)c(-c2nnc(SCc4nnc(-c5ccc(Cl)cc5)o4)o2)cn3C2CC2)CC1 | 4.49 to 5.62 | 4.49 to 5.62 | 4.49 to 5.62 | – | –
7 | CN1CCN(c2cc3c(cc2F)c(=O)c(-c2nnc(SCc4nnc(-c5ccc([N+](=O)[O-])cc5)o4)o2)cn3C2CC2)CC1 | 4.49 to 5.62 | 4.49 to 5.62 | 4.49 to 5.62 | – | –
8 | COc1ccc(-c2nnc(CSc3nnc(-c4cn5c6c(c(N7CCN(C)CC7)c(F)cc6c4=O)OCC5C)o3)o2)cc1 (configuration not stated) | 4.61 to 5.24 | 4.61 to 5.24 | 4.61 to 5.24 | – | –
9 | CC1COc2c(N3CCN(C)CC3)c(F)cc3c(=O)c(-c4nnc(SCc5nnc(-c6ccccc6)o5)o4)cn1c23 (configuration not stated) | 4.61 to 5.24 | 4.61 to 5.24 | 4.61 to 5.24 | – | –
10 | COc1ccc(-c2csc3nc(-c4cn5c6c(c(N7CCN(C)CC7)c(F)cc6c4=O)OCC5C)nn23)cc1OC (configuration not stated) | 4.27 to 4.45 | 4.27 to 4.45 | 4.27 to 4.45 | 4.27 to 4.45 | 4.27 to 4.45
11 | CC1COc2c(N3CCN(C)CC3)c(F)cc3c(=O)c(-c4nc5scc(-c6ccccc6O)n5n4)cn1c23 (configuration not stated) | 4.25 to 5.44 | 4.25 to 5.44 | 4.25 to 5.44 | 4.25 to 5.44 | 4.25 to 5.44
12 | CCn1cc(-c2nc3scc(-c4ccccc4O)n3n2)c(=O)c2cc(F)c(N3CCN(C)CC3)cc21 | 4.25 to 5.44 | 4.25 to 5.44 | 4.25 to 5.44 | 4.25 to 5.44 | 4.25 to 5.44
13 | CCn1cc(-c2nc3scc(-c4ccc(Cl)cc4)n3n2)c(=O)c2cc(F)c(N3CCN(C)CC3)cc21 | 4.25 to 5.44 | 4.25 to 5.44 | 4.25 to 5.44 | 4.25 to 5.44 | 4.25 to 5.44
14 | CCn1cc(-c2nc3scc(-c4ccc(OC)cc4)n3n2)c(=O)c2cc(F)c(N3CCN(C)CC3)cc21 | 4.25 to 5.44 | 4.25 to 5.44 | 4.25 to 5.44 | 4.25 to 5.44 | 4.25 to 5.44
15 | CCn1cc(-c2nc3scc(-c4ccc([N+](=O)[O-])cc4)n3n2)c(=O)c2cc(F)c(N3CCN(C)CC3)cc21 | 4.25 to 5.44 | 4.25 to 5.44 | 4.25 to 5.44 | 4.25 to 5.44 | 4.25 to 5.44
16 | CCn1cc(-c2nc3scc(-c4ccccc4)n3n2)c(=O)c2cc(F)c(N3CCN(C)CC3)cc21 | 4.25 to 5.44 | 4.25 to 5.44 | 4.25 to 5.44 | 4.25 to 5.44 | 4.25 to 5.44
17 | COc1cc(-c2csc3nc(-c4cn5c6c(c(N7CCN(C)CC7)c(F)cc6c4=O)OCC5C)nn23)ccc1O (configuration not stated) | 4.25 to 5.44 | 4.25 to 5.44 | 4.25 to 5.44 | 4.25 to 5.44 | 4.25 to 5.44
18 | CCn1cc(-c2nnc(SCc3nnc(-c4ccc(OC)c(OC)c4)o3)[nH]2)c(=O)c2cc(F)c(N3CCN(C)CC3)cc21 | 4.45 to 5.42 | 4.45 to 5.42 | 4.45 to 5.42 | 4.45 to 5.42 | 4.45 to 5.42
19 | COc1ccccc1-c1csc2nc(-c3cn4c5c(c(N6CCN(C)CC6)c(F)cc5c3=O)OCC4C)nn12 (configuration not stated) | 4.25 to 5.44 | 4.25 to 5.44 | 4.25 to 5.44 | 4.25 to 5.44 | 4.25 to 5.44
20 | CC1COc2c(N3CCN(C)CC3)c(F)cc3c(=O)c(-c4nnc(SCc5nnc(-c6ccc([N+](=O)[O-])cc6)o5)o4)cn1c23 (configuration not stated) | 4.61 to 5.24 | 4.61 to 5.24 | 4.61 to 5.24 | – | –
21 | CC1COc2c(N3CCN(C)CC3)c(F)cc3c(=O)c(-c4nc5scc(-c6ccc(O)cc6)n5n4)cn1c23 (configuration not stated) | 4.25 to 5.44 | 4.25 to 5.44 | 4.25 to 5.44 | 4.25 to 5.44 | 4.25 to 5.44
22 | CCn1cc(-c2nc3scc(-c4ccc5c(c4)OCO5)n3n2)c(=O)c2cc(F)c(N3CCN(C)CC3)cc21 | 4.25 to 5.44 | 4.25 to 5.44 | 4.25 to 5.44 | 4.25 to 5.44 | 4.25 to 5.44
23 | Cc1ccc(-c2csc3nc(-c4cn(C5CC5)c5cc(N6CCN(C)CC6)c(F)cc5c4=O)nn23)cc1 | 4.25 to 5.44 | 4.25 to 5.44 | 4.25 to 5.44 | 4.25 to 5.44 | 4.25 to 5.44

Row | SMILES | pIC50 [1] | pIC50 [2] | pIC50 [3] | pIC50 [4] | pIC50 [5]
24 | CC1COc2c(N3CCN(C)CC3)c(F)cc3c(=O)c(-c4nc5scc(-c6ccc(Cl)cc6)n5n4)cn1c23 (configuration not stated) | 4.25 to 5.44 | 4.25 to 5.44 | 4.25 to 5.44 | 4.25 to 5.44 | 4.25 to 5.44
25 | COc1cc(-c2nnc(CSc3nnc(-c4cn(C5CC5)c5cc(N6CCN(C)CC6)c(F)cc5c4=O)o3)o2)cc(OC)c1OC | 4.49 to 5.62 | 4.49 to 5.62 | 4.49 to 5.62 | – | –
26 | CCn1cc(-c2nc3scc(-c4ccccc4OC)n3n2)c(=O)c2cc(F)c(N3CCN(C)CC3)cc21 | 4.25 to 5.44 | 4.25 to 5.44 | 4.25 to 5.44 | 4.25 to 5.44 | 4.25 to 5.44
27 | CN1CCN(c2cc3c(cc2F)c(=O)c(-c2nc4scc(-c5ccc(Cl)cc5)n4n2)cn3C2CC2)CC1 | 4.25 to 5.44 | 4.25 to 5.44 | 4.25 to 5.44 | 4.25 to 5.44 | 4.25 to 5.44
28 | COc1cc(-c2nnc(CSc3nnc(-c4cn5c6c(c(N7CCN(C)CC7)c(F)cc6c4=O)OCC5C)o3)o2)cc(OC)c1OC (configuration not stated) | 4.61 to 5.24 | 4.61 to 5.24 | 4.61 to 5.24 | – | –
29 | CC1COc2c(N3CCN(C)CC3)c(F)cc3c(=O)c(-c4nc5scc(-c6ccc7c(c6)OCO7)n5n4)cn1c23 (configuration not stated) | 4.25 to 5.44 | 4.25 to 5.44 | 4.25 to 5.44 | 4.25 to 5.44 | 4.25 to 5.44
30 | CN1CCN(c2cc3c(cc2F)c(=O)c(-c2nnc(SCc4nnc(-c5ccccc5)o4)o2)cn3C2CC2)CC1 | 4.49 to 5.62 | 4.49 to 5.62 | 4.49 to 5.62 | – | –
31 | CCn1cc(-c2nc3scc(-c4ccc(F)cc4)n3n2)c(=O)c2cc(F)c(N3CCN(C)CC3)cc21 | 4.25 to 5.44 | 4.25 to 5.44 | 4.25 to 5.44 | 4.25 to 5.44 | 4.25 to 5.44
32 | CC1COc2c(N3CCN(C)CC3)c(F)cc3c(=O)c(-c4nc5scc(-c6ccccc6)n5n4)cn1c23 (configuration not stated) | 4.25 to 5.44 | 4.25 to 5.44 | 4.25 to 5.44 | 4.25 to 5.44 | 4.25 to 5.44
33 | CN1CCN(c2cc3c(cc2F)c(=O)c(-c2nc4scc(-c5ccccc5)n4n2)cn3C2CC2)CC1 | 4.25 to 5.44 | 4.25 to 5.44 | 4.25 to 5.44 | 4.25 to 5.44 | 4.25 to 5.44
34 | CCn1cc(-c2nnc(SCc3nnc(-c4ccc(OC)cc4)o3)[nH]2)c(=O)c2cc(F)c(N3CCN(C)CC3)cc21 | 4.45 to 5.42 | 4.45 to 5.42 | 4.45 to 5.42 | 4.45 to 5.42 | 4.45 to 5.42
35 | CCn1cc(-c2nc3scc(-c4ccc(C)cc4)n3n2)c(=O)c2cc(F)c(N3CCN(C)CC3)cc21 | 4.25 to 5.44 | 4.25 to 5.44 | 4.25 to 5.44 | 4.25 to 5.44 | 4.25 to 5.44
36 | CN1CCN(c2cc3c(cc2F)c(=O)c(-c2nc4scc(-c5ccc(Br)cc5)n4n2)cn3C2CC2)CC1 | 4.25 to 5.44 | 4.25 to 5.44 | 4.25 to 5.44 | 4.25 to 5.44 | 4.25 to 5.44
37 | Cc1ccc(-c2nnc(CSc3nnc(-c4cn(C5CC5)c5cc(N6CCN(C)CC6)c(F)cc5c4=O)o3)o2)cc1 | 4.49 to 5.62 | 4.49 to 5.62 | 4.49 to 5.62 | – | –
38 | CC1COc2c(N3CCN(C)CC3)c(F)cc3c(=O)c(-c4nc5scc(-c6ccc([N+](=O)[O-])cc6)n5n4)cn1c23 (configuration not stated) | 4.25 to 5.44 | 4.25 to 5.44 | 4.25 to 5.44 | 4.25 to 5.44 | 4.25 to 5.44
39 | COc1ccccc1-c1nnc(CSc2nnc(-c3cn4c5c(c(N6CCN(C)CC6)c(F)cc5c3=O)OCC4C)o2)o1 (configuration not stated) | 4.61 to 5.24 | 4.61 to 5.24 | 4.61 to 5.24 | – | –
40 | Cc1ccc(-c2nnc(CSc3nnc(-c4cn5c6c(c(N7CCN(C)CC7)c(F)cc6c4=O)OCC5C)o3)o2)cc1 (configuration not stated) | 4.61 to 5.24 | 4.61 to 5.24 | 4.61 to 5.24 | – | –
41 | CN1CCN(c2cc3c(cc2F)c(=O)c(-c2nc4scc(-c5ccc(F)cc5)n4n2)cn3C2CC2)CC1 | 4.25 to 5.44 | 4.25 to 5.44 | 4.25 to 5.44 | 4.25 to 5.44 | 4.25 to 5.44
42 | CN1CCN(c2cc3c(cc2F)c(=O)c(-c2nc4scc(-c5ccc([N+](=O)[O-])cc5)n4n2)cn3C2CC2)CC1 | – | 5.12 to 5.44 | – | 5.12 to 5.44 | 5.12 to 5.44
43 | COc1ccccc1-c1nnc(CSc2nnc(-c3cn(C4CC4)c4cc(N5CCN(C)CC5)c(F)cc4c3=O)o2)o1 | 4.49 to 5.62 | 4.49 to 5.62 | 4.49 to 5.62 | – | –
44 | COc1ccc(-c2csc3nc(-c4cn(C5CC5)c5cc(N6CCN(C)CC6)c(F)cc5c4=O)nn23)cc1 | 4.25 to 5.44 | 4.25 to 5.44 | 4.25 to 5.44 | 4.25 to 5.44 | 4.25 to 5.44
45 | COc1ccc(-c2csc3nc(-c4cn5c6c(c(N7CCN(C)CC7)c(F)cc6c4=O)OCC5C)nn23)cc1 (configuration not stated) | 4.45 to 4.57 | 4.45 to 4.57 | 4.45 to 4.57 | 4.45 to 4.57 | 4.45 to 4.57
46 | Cc1ccc(-c2csc3nc(-c4cn5c6c(c(N7CCN(C)CC7)c(F)cc6c4=O)OCC5C)nn23)cc1 (configuration not stated) | 4.25 to 5.44 | 4.25 to 5.44 | 4.25 to 5.44 | 4.25 to 5.44 | 4.25 to 5.44

Reference: ChEMBL document CHEMBL4613209, “Quinolone hybrids and their anti-cancer activities: An overview” (Eur J Med Chem, 2019)
